According to US9045470B2, “Compounds and compositions as TLR activity modulators” (IRM LLC, priority 2009, dated 2015):

target: T1, human TLR7 (Homo sapiens, UniProt Q9NYK1); assay: Reporter gene assay: HEK293 cells stably transfected with human TLR7 and NF-kB-driven luciferase reporter; format: cell-based; settings: not given
T1 construct: expressed in transfected cells; host or cells: HEK 293 (human embryonic kidney 293), stably transfected; co-transfected pNifty-Luciferase reporter
T1 sequence (Q9NYK1 27-1049): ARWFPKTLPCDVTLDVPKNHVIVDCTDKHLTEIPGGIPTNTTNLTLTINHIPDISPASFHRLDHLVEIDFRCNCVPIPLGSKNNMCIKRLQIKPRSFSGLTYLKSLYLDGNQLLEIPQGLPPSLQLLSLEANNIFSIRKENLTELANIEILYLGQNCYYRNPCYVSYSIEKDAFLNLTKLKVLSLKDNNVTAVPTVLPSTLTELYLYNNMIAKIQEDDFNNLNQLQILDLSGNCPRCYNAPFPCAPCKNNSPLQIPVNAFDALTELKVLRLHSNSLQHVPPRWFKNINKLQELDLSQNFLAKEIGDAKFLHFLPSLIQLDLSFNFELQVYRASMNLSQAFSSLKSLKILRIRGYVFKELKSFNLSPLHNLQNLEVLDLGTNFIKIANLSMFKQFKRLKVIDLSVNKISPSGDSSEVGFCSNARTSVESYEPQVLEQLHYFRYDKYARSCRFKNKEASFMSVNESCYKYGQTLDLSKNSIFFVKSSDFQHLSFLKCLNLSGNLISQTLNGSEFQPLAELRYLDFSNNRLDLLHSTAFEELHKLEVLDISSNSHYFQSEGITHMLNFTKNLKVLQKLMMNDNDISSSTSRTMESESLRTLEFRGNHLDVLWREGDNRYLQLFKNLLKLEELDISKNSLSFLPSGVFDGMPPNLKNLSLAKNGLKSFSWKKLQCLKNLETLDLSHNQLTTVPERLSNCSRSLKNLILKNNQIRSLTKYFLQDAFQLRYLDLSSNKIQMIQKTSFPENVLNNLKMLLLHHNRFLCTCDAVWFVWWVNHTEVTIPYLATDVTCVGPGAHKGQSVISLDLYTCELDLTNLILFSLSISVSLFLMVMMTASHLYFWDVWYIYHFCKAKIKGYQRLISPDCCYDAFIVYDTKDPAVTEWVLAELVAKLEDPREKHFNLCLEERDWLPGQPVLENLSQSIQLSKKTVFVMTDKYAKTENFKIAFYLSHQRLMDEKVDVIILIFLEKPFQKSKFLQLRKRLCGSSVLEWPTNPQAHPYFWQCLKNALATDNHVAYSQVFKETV
Experimental: Human embryonic kidney 293 (HEK 293) cells were stably transfected with human TLR7 and an NF-kB-driven luciferase reporter vector (pNifty-Luciferase). As a control assay, normal Hek293 transfected with pNifty-Luc were used. Cells were cultured in DMEM supplemented with 2 mM L-glutamine, 10% heart inactivated FBS, 1% penicillin and streptomycin, 2 μg/ml puromycin (InvivoGen #ant-pr-5) and 5 μg/ml of blasticidin (Invitrogen #46-1120). Bright-Glo™ Luciferase assay buffer and substrate were supplied by Promega #E263B and #E264B (assay substrate and buffer respectively). 384 well clear-bottom plates were supplied by Greiner bio-one (#789163-G) and were custom bar-coded plates.
Cells were plated at 25,000 cells/well in 384-well plates in a final volume of 50 μl of media. Cells were allowed to adhere to the plates after overnight (18 hours) culture at 37° C. and 5% CO2. Serially diluted experimental and positive control compounds were then dispensed to each well and incubated for 7 hours at 37° C. and 5% CO2. Cells stimulated with DMSO alone also serve as negative controls. After the incubation, 30 μl of the pre-mix assay buffer and substrate buffer were added to each well according to manufacturer's instructions.
The EC50 value in those experiments is given as that concentration of the test compound in question that provoke a response halfway between the baseline and maximum responses. […] Such EC50 values are obtained relative to the activity of resiquimod set to 100%.

Row | SMILES | EC50 [nM]
1 | Cc1ccc2c(c1)nc(N)c1ncc(CCc3ccc(OCP(=O)(O)O)cc3C)cc12 [Compound 3, (4-(2-(5-amino-8-methylbenzo[f][1,7]naphthyridin-2-yl)ethyl)-3-methylphenoxy)methylphosphonic acid] | 3170
2 | Cc1ccc2c(c1)nc(N)c1ncc(CCc3ccc(OCCCCC(F)(F)P(=O)(O)O)cc3C)cc12 [Compound 4, 5-(4-(2-(5-amino-8-methylbenzo[f][1,7]naphthyridin-2-yl)ethyl)-3-methylphenoxy)-1,1-difluoropentylphosphonic acid] | 559
3 | Cc1ccc2c(c1)nc(N)c1ncc(CCc3ccc(OCCOCCOCCC(F)(F)P(=O)(O)O)cc3C)cc12 [Compound 6, 3-(2-(2-(4-(2-(5-amino-8-methylbenzo[f][1,7]naphthyridin-2-yl)ethyl)-3-methylphenoxy)ethoxy)ethoxy)-1,1-difluoropropylphosphonic acid] | 1640
4 | Cc1ccc2c(c1)nc(N)c1ncc(CCc3ccc(OCCOCCC(F)(F)P(=O)(O)O)cc3C)cc12 [Compound 7, 3-(2-(4-(2-(5-amino-8-methylbenzo[f][1,7]naphthyridin-2-yl)ethyl)-3-methylphenoxy)ethoxy)-1,1-difluoropropylphosphonic acid] | 1010
5 | Cc1ccc2c(c1)nc(N)c1ncc(CCc3ccc(OCc4ccc(CC(F)(F)P(=O)(O)O)cc4)cc3C)cc12 [Compound 8, 2-(4-((4-(2-(5-amino-8-methylbenzo[f][1,7]naphthyridin-2-yl)ethyl)-3-methylphenoxy)methyl)phenyl)-1,1-difluoroethylphosphonic acid] | 375
6 | COc1ccc(CCc2cnc3c(N)nc4cc(C(=O)C(F)(F)P(=O)(O)O)ccc4c3c2)c(C)c1 [Compound 9, 2-(5-amino-2-(4-methoxy-2-methylphenethyl)benzo[f][1,7]naphthyridin-8-yl)-1,1-difluoro-2-oxoethylphosphonic acid] | 390
7 | COc1ccc(CCc2cnc3c(N)nc4cc(/C=C/P(=O)(O)O)ccc4c3c2)c(C)c1 [Compound 10, (E)-2-(5-Amino-2-(4-methoxy-2-methylphenethyl)benzo[f][1,7]naphthyridin-8-yl)vinylphosphonic acid] | 153
8 | COc1ccc(CCc2cnc3c(N)nc4cc(CCP(=O)(O)O)ccc4c3c2)c(C)c1 [Compound 11, 2-(5-amino-2-(4-methoxy-2-methylphenethyl)benzo[f][1,7]naphthyridin-8-yl)ethylphosphonic acid] | 90
9 | COc1ccc(CCc2cnc3c(N)nc4cc(/C=C(\F)P(=O)(O)O)ccc4c3c2)c(C)c1 [Compound 12, (E)-2-(5-Amino-2-(4-methoxy-2-methylphenethyl)benzo[f][1,7]naphthyridin-8-yl)-1-fluorovinylphosphonic acid] | 201
10 | Cc1ccc2c(c1)nc(N)c1ncc(CCc3ccc(OCc4cccc(P(=O)(O)O)c4)cc3C)cc12 [Compound 13, 3-((4-(2-(5-amino-8-methylbenzo[f][1,7]naphthyridin-2-yl)ethyl)-3-methylphenoxy)methyl)phenylphosphonic acid] | 1050
11 | COc1ccc(CCc2cnc3c(N)nc4cc(C(=O)P(=O)(O)O)ccc4c3c2)c(C)c1 [Compound 14, 5-amino-2-(4-methoxy-2-methylphenethyl)benzo[f][1,7]naphthyridine-8-carbonylphosphonic acid] | 885
12 | Cc1cc(OCCCP(=O)(O)O)ccc1CCc1cnc2c(N)nc3cc(CCC(=O)O)ccc3c2c1 [Compound 15, 3-(5-amino-2-(2-methyl-4-(3-phosphonopropoxy)phenethyl)benzo[f][1,7]naphthyridin-8-yl)propanoic acid] | 65
13 | Cc1cc(OCCOCCOCCC(F)(F)P(=O)(O)O)ccc1CCc1cnc2c(N)nc3cc(CCC(=O)O)ccc3c2c1 [Compound 17, 3-(5-amino-2-(4-(2-(2-(3,3-difluoro-3-phosphonopropoxy)ethoxy)ethoxy)-2-methylphenethyl)benzo[f][1,7]naphthyridin-8-yl)propanoic acid] | 5
14 | Cc1cc(OCCOCCOCCOCCP(=O)(O)O)ccc1CCc1cnc2c(N)nc3cc(CCC(=O)O)ccc3c2c1 [Compound 18, 3-(5-amino-2-(2-methyl-4-(2-(2-(2-(2-phosphonoethoxy)ethoxy)ethoxy)ethoxy)phenethyl)benzo[f][1,7]naphthyridin-8-yl)propanoic acid] | 964
15 | Cc1ccc2c(c1)nc(N)c1ncc(CCc3ccc(OCCP(=O)(O)O)cc3C)cc12 [Compound 22, 2-(4-(2-(5-amino-8-methylbenzo[f][1,7]naphthyridin-2-yl)ethyl)-3-methylphenoxy)ethylphosphonic acid] | 1160
16 | Cc1ccc2c(c1)nc(N)c1ncc(CCc3ccc(OCCCCCCP(=O)(O)O)cc3C)cc12 [Compound 23, 6-(4-(2-(5-amino-8-methylbenzo[f][1,7]naphthyridin-2-yl)ethyl)-3-methylphenoxy)hexylphosphonic acid] | 791
17 | Cc1ccc2c(c1)nc(N)c1ncc(CCc3ccc(OCCCCCC(F)(F)P(=O)(O)O)cc3C)cc12 [Compound 24, 6-(4-(2-(5-amino-8-methylbenzo[f][1,7]naphthyridin-2-yl)ethyl)-3-methylphenoxy)-1,1-difluorohexylphosphonic acid] | 4260
18 | Cc1ccc2c(c1)nc(N)c1ncc(CCc3ccc(OCc4ccc(CP(=O)(O)O)cc4)cc3C)cc12 [Compound 25, 4-((4-(2-(5-amino-8-methylbenzo[f][1,7]naphthyridin-2-yl)ethyl)-3-methylphenoxy)methyl)benzylphosphonic acid] | 975
19 | Cc1ccc2c(c1)nc(N)c1ncc(CCc3ccc(OCCOCCOCCP(=O)(O)O)cc3C)cc12 [Compound 26, 2-(2-(2-(4-(2-(5-amino-8-methylbenzo[f][1,7]naphthyridin-2-yl)ethyl)-3-methylphenoxy)ethoxy)ethoxy)ethylphosphonic acid] | 2590
20 | Cc1ccc2c(c1)nc(N)c1ncc(CCc3ccc(OCCCCCP(=O)(O)O)cc3C)cc12 [Compound 27, 5-(4-(2-(5-amino-8-methylbenzo[f][1,7]naphthyridin-2-yl)ethyl)-3-methylphenoxy)pentylphosphonic acid] | 921
21 | Cc1ccc2c(c1)nc(N)c1ncc(CCc3ccc(OCCCCP(=O)(O)O)cc3C)cc12 [Compound 28, 4-(4-(2-(5-amino-8-methylbenzo[f][1,7]naphthyridin-2-yl)ethyl)-3-methylphenoxy)butylphosphonic acid] | 524

same assay, conditions: HEK293 stably transfected with human TLR7 and NF-kB luciferase reporter; 7 hours incubation; relative to resiquimod set to 100%; read-out: Human TLR7 EC50 (nM) HEK293

Row | SMILES | EC50 [nM]
22 | Cc1ccc2c(c1)nc(N)c1ncc(CCc3ccc(OP(=O)(O)O)cc3C)cc12 [Compound 2, 4-(2-(5-amino-8-methylbenzo[f][1,7]naphthyridin-2-yl)ethyl)-3-methylphenyl dihydrogen phosphate] | 315
23 | Cc1cc(OCCOCCP(=O)(O)O)ccc1CCc1cnc2c(N)nc3cc(CCC(=O)O)ccc3c2c1 [Compound 21, 3-(5-amino-2-(2-methyl-4-(2-(2-phosphonoethoxy)ethoxy)phenethyl)benzo[f][1,7]naphthyridin-8-yl)propanoic acid] | 204

system: not listed separately; assay: Binding to alum in 10 mM histidine buffer, LC-MS/MS of supernatant; format: physicochemical; settings: 10 mM histidine buffer pH 6.8; final compound 0.1 mg/mL; 37° C. for 5 hours; 100% minus % unbound
Experimental: The resulting solution was diluted 10-fold with blank histidine buffer to a final compound concentration of 0.1 mg/mL. Diluted solutions were incubated at 37° C. for 5 hours. The samples were centrifuged at 14,000 rpm for 10 minutes to pellet the insoluble. The supernatant (along with an internal standard) was then evaluated by LC-MS/MS using a ballistic gradient (from 5% CH3CN-0.5% formic acid to 95% CH3CN-1.0% formic acid in 3.5 minutes) on a Waters Atlantis dC18 (50 mm×2.1 mm) column at room temperature against a calibration curve prepared at known compound concentrations ranging from 0.005 to 50 μM. The concentration in the supernatant was calculated as % unbound to alum compared to control; the % bound to alum was calculated as 100% minus % unbound.

Row | SMILES | % Alum bound in Histidine buffer [%]
24 | Cc1ccc2c(c1)nc(N)c1ncc(CCc3ccc(OCCOCCOCCC(F)(F)P(=O)(O)O)cc3C)cc12 [Compound 6, 3-(2-(2-(4-(2-(5-amino-8-methylbenzo[f][1,7]naphthyridin-2-yl)ethyl)-3-methylphenoxy)ethoxy)ethoxy)-1,1-difluoropropylphosphonic acid] | 98.2
25 | Cc1cc(OCCOCCOCCC(F)(F)P(=O)(O)O)ccc1CCc1cnc2c(N)nc3cc(CCC(=O)O)ccc3c2c1 [Compound 17, 3-(5-amino-2-(4-(2-(2-(3,3-difluoro-3-phosphonopropoxy)ethoxy)ethoxy)-2-methylphenethyl)benzo[f][1,7]naphthyridin-8-yl)propanoic acid] | 96.2
26 | Cc1cc(OCCOCCC(F)(F)P(=O)(O)O)ccc1CCc1cnc2c(N)nc3cc(CCC(=O)O)ccc3c2c1 [Compound 19, 3-(5-amino-2-(4-(2-(3,3-difluoro-3-phosphonopropoxy)ethoxy)-2-methylphenethyl)benzo[f][1,7]naphthyridin-8-yl)propanoic acid] | 96.0
